Literature values as cited in patent publication US20060251637A1, “Oil-in-water type emulsion containing coenzyme q10 and process for producting the same” (priority 2003, published 2006).

Details: at 20° C.; decreases with decreasing temperature

Lipid solubility of coenzyme Q10: approximately 1%
SMILES: COC1=C(OC)C(=O)C(C/C=C(\C)CC/C=C(\C)CC/C=C(\C)CC/C=C(\C)CC/C=C(\C)CC/C=C(\C)CC/C=C(\C)CC/C=C(\C)CC/C=C(\C)CCC=C(C)C)=C(C)C1=O [coenzyme Q10]
